Data reported in patent US20040029910A1, “Protoberberine derivatives which inhibit activity of the mitogen-activated protein kinase” (priority 2000, published 2004).

Experiments:
[1] = system: knock-out mutant of wis1 (JM544); test: Growth (cell number) of wis1 knock-out mutant; type: cell-based, Schizosaccharomyces pombe; details: for inhibition of the activity of Wis1 kinase, concluded from effects on knock-out mutants: conclusion from growth of knock-out mutants; for cell number: Table 5, wis1 knock-out, miconazole 3 ug/mL
Description: To investigate the effect of protoberberine derivatives on the growth of cells, the cells of each strain were cultured in rich medium YE^AU to exponential phase(5×10^7 cells/mL). […]

Wis1 kinase = molecular target: T1, Wis1 kinase (Schizosaccharomyces pombe, UniProt P33886); test: Wis1 kinase activity and autophosphorylation ([γ-32P]ATP, SDS-PAGE, FIG. 2); type: biochemical; details: purified GST-Wis1, kinase reaction 30° C. 30 minutes, autophosphorylation also measured
T1 construct: The genes wis1 and spc1 were cloned into the pRep1 vector containing nmt1 promoter; made in house; host or cells: Schizosaccharomyces pombe KGY246 (pRep1 vector, nmt1 promoter)
T1 sequence (P33886 1-605): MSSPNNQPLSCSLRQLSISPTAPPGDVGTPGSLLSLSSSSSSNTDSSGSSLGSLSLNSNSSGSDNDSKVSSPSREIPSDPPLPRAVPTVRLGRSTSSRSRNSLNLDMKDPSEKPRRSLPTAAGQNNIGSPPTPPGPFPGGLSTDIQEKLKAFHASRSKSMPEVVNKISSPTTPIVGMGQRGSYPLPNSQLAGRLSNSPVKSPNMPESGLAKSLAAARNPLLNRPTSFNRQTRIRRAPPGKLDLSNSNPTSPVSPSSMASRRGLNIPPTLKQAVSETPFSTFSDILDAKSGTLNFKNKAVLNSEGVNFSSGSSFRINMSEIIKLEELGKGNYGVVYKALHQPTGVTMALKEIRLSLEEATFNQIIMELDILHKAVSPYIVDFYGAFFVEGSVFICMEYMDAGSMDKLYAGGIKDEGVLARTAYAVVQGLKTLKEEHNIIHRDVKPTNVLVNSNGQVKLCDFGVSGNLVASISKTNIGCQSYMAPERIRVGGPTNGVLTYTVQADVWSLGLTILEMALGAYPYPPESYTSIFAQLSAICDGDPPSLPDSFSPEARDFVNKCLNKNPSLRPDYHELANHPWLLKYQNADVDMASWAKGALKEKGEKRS
Description: The genes wis1 and spc1 were cloned into the pRep1 vector containing nmt1 promoter of which expression was inhibited by thiamin in the medium and able to tag GST. The KGY246 cells, wild type Schizosaccharomyces pombe cells were transformed with this plasmid. The expression of Wis1 and Spc1 kinase tagged with GST was induced by the cultivation of the transformed cells in MM^AU medium containing 0.4 mM thiamin followed by cultivation to exponential phase(5×10^6 cells) for about 20 hours in 100 mL of MM^AU medium in which thiamin was withdrawn. After osmotic shock(0.6M KCl) and oxidative stress were given to the cells expressing Wis1 and Spc1 tagged with GST for 25 minutes, cells were recovered at 4° C., washed with ice-cold PBS/NaF(50 mM)/NaN3(1 mM) buffer and HB buffer(25 mM HEPES, pH 7.5, 60 mM β-glycerophosphate, 15 mM EGTA, 0.1 mM Na vanadate, 0.1% triton and hydrolyzed using glass bead and bead beater purchased from Sigma. The supernatant of hydrolyzed cells was incubated with 100 mM NaCl for salting-out to remove unnecessary proteins. After the supernatant was incubated with 0.045 g/ml GST beads for 1.5 hours, proteins not bound to GST beads were removed. Purified Wis1 and Spc1 kinases were separated on 7% SDS-PAGE and the degree of purification was confirmed by western blotting using GST antibody.
Before Wis1 and Spc1 kinases purified in example 4 were analyzed, they were pre-incubated in analyzing buffer of kinase (50 mM Tris-Cl pH7.4, 20 mM MgCl2, 5 mM EGTA, 2 mM Na vanadate, 1 mM DTT). The kinase reaction was performed at 30° C. for 30 minutes in the presence of 1 mg/ml myelin basic protein(MBP), 1 mM ATP and 20 uCi of [γ-^32p]ATP and then terminated by adding SDS sample buffer and heating at 90° C. for 5 minutes. The reaction mixtures were separated on SDS-polyacrylamide gel electrophoresis. After fixation with 10% acetic acid: 10% methanol and drying, the gel was exposed on X-ray film. When Wis1 is activated by stimulus, it also activates autophosphorylation. Therefore, the degree of Wis1 autophosphorylation was also measured.

[2] = system: knock-out mutant of spc1 (KS1366); test: Growth (cell number) of spc1 knock-out mutant; type: cell-based, Schizosaccharomyces pombe; details: Table 6, spc1 knock-out, miconazole 3 ug/mL
Description: To investigate the effect of protoberberine derivatives on the growth of cells, the cells of each strain were cultured in rich medium YE^AU to exponential phase(5×10^7 cells/mL). […] Then cell number was measured every 3 hours.

[3] = system: knock-out mutant of spm1 in Mhk1-Spm1 pathway (TZs69); test: Growth (cell number) of spm1 knock-out mutant; type: cell-based, Schizosaccharomyces pombe; details: Table 4, spm1 knock-out, miconazole 3 ug/mL
Description: (§1) To investigate the effect of protoberberine derivatives on the growth of cells, the cells of each strain were cultured in rich medium YE^AU to exponential phase(5×10^7 cells/mL). These cells were transferred to YE^AU medium and cultured for 12 hours. Then cell number was measured every 3 hours.

[4] = system: knock-out mutant of byr2 in Ras-Byr2 pathway (SPSU); test: Growth (cell number) of byr2 knock-out mutant; type: cell-based, Schizosaccharomyces pombe; details: Table 3, byr2 knock-out, miconazole 3 ug/mL
Description: as §1

Row | SMILES | inhibition of the activity of Wis1 kinase, concluded from effects on knock-out mutants [1] | inhibition of Wis1 kinase activity (in words) (Wis1 kinase) | other results
1 | COc1ccc2c(Cc3c(F)c(F)c(F)c(F)c3F)c3[n+](cc2c1OC)CCc1cc2c(cc1-3)OCO2 [13-(2,3,4,5,6-pentafluorobenzyl)berberine chloride] | inhibited | directly inhibited | –
2 | COc1ccc2c(Cc3c(F)c(F)c(C(F)(F)F)c(F)c3F)c3[n+](cc2c1OC)CCc1cc2c(cc1-3)OCO2.[Cl-] [13-(2,3,5,6-tetrafluoro-4-trifluoromethylbenzyl)berberine chloride] | inhibited | directly inhibited | –
3 | COc1ccc2c(Cc3cccc(Cl)c3Cl)c3[n+](cc2c1OC)CCc1cc2c(cc1-3)OCO2.[Cl-] [13-(2,3-dichlorobenzyl)berberine chloride] | inhibited | directly inhibited | –
4 | COc1ccc2c(Cc3ccc(C)cc3C)c3[n+](cc2c1OC)CCc1cc2c(cc1-3)OCO2.[Cl-] [13-(2,4-dimethylbenzyl)berberine chloride] | inhibited | directly inhibited | –
5 | COc1ccc2c(Cc3c(F)cccc3Cl)c3[n+](cc2c1OC)CCc1cc2c(cc1-3)OCO2 [13-(2-chloro-6-fluorobenzyl)berberine chloride] | inhibited | directly inhibited | –
6 | COc1ccc2c(Cc3cccc(Br)c3)c3[n+](cc2c1OC)CCc1cc2c(cc1-3)OCO2 [13-(3-bromobenzyl)berberine iodide] | inhibited | directly inhibited | –
7 | COc1ccc2c(Cc3cccc(C(F)(F)F)c3)c3[n+](cc2c1OC)CCc1cc2c(cc1-3)OCO2.[Cl-] [13-(3-trifluoromethylbenzyl)berberine chloride] | inhibited | directly inhibited | –
8 | COc1ccc2c(Cc3ccc(Cl)cc3)c3[n+](cc2c1OC)CCc1cc2c(cc1-3)OCO2.[I-] [13-(4-chlorobenzyl)berberine iodide] | inhibited | directly inhibited | –
9 | COc1ccc2c(Cc3ccc(F)cc3C(F)(F)F)c3[n+](cc2c1OC)CCc1cc2c(cc1-3)OCO2.[Cl-] [13-(4-fluoro-2-trifluoromethylbenzyl)berberine chloride] | inhibited | directly inhibited | –
10 | COc1ccc2c(Cc3ccc(C(C)C)cc3)c3[n+](cc2c1OC)CCc1cc2c(cc1-3)OCO2.[Cl-] [13-(4-i-propylbenzyl)berberine chloride] | inhibited | directly inhibited | –
11 | COc1ccc(Cc2c3[n+](cc4c(OC)c(OC)ccc24)CCc2cc4c(cc2-3)OCO4)cc1 [13-(4-methoxybenzyl)berberine chloride] | inhibited | directly inhibited | –
12 | COC(=O)c1ccc(Cc2c3[n+](cc4c(OC)c(OC)ccc24)CCc2cc4c(cc2-3)OCO4)cc1 [13-(4-methoxycarbonylbenzyl)berberine chloride] | inhibited | directly inhibited | –
13 | COc1ccc2c(Cc3ccc(C)c([N+](=O)[O-])c3)c3[n+](cc2c1OC)CCc1cc2c(cc1-3)OCO2.[Cl-] [13-(4-methyl-3-nitrobenzyl)berberine chloride] | inhibited | directly inhibited | –
14 | COc1ccc2c(Cc3ccc(C)cc3)c3[n+](cc2c1OC)CCc1cc2c(cc1-3)OCO2.[Cl-] [13-(4-methylbenzyl)berberine chloride] | inhibited | directly inhibited | –
15 | COc1ccc2c(Cc3ccc(OC(F)(F)F)cc3)c3[n+](cc2c1OC)CCc1cc2c(cc1-3)OCO2.[Cl-] [13-(4-trifluoromethoxybenzyl)berberine chloride] | inhibited | directly inhibited | –
16 | COc1ccc2c(Cc3ccccc3)c3[n+](cc2c1OC)CCc1cc2c(cc1-3)OCO2.[I-] [13-benzylberberine iodide] | inhibited | directly inhibited | –
17 | Clc1ccc(COC(Cn2ccnc2)c2ccc(Cl)cc2Cl)c(Cl)c1 (stereo not shown) [miconazole, reference compound] | – | – | cell number ([1]; time 12): 35; cell number ([1]; time 15): 37; cell number ([1]; time 18): 25; cell number ([1]; time 21): 19; cell number ([1]; time 24): 12; cell number ([2]; time 12): 15; cell number ([2]; time 15): 9; cell number ([2]; time 18): 12; cell number ([2]; time 21): 18; cell number ([2]; time 24): 17; cell number ([3]; time 12): 28; cell number ([3]; time 15): 27; cell number ([3]; time 18): 23; cell number ([3]; time 21): 34; cell number ([3]; time 24): 26; cell number ([4]; time 12): 32; cell number ([4]; time 15): 19; cell number ([4]; time 18): 31; cell number ([4]; time 21): 30; cell number ([4]; time 24): 27
